Test results reported in US20250113823A1, “Arthropod Control Compositions” (priority 2022, published 2025).
Read-outs that look alike come from different tables or passages of the source.

What was measured:
Aedes aegypti [1] = assay: Double (dual) chamber assay, spatial repellence; format: in vivo
Method: FIG. 1: Percentage of mosquitoes Aedes aegypti escaping over time the chamber treated with a stimulus. The four stimuli were the solvent propan-1,2-diol (grey triangles and dotted line), N,N-diethyl-meta-toluamide (medium grey diamonds), 2,6-dimethoxy-4-methylphenol (light gray squares) and 1,2,3-trimethoxy-5-propylbenzene (black circles). Each stimulus was injected during 40 min thanks to a forced evaporation system in the treated chamber containing the mosquitoes, causing their movement toward the untreated refuge chamber. Each point represents the mean number of mosquitoes in the untreated chamber (n=57, 6, 4 and 4 respectively)±SD at 10 min intervals.
The goal of this assay was to reproduce at a smaller scale the validation test for spatial repellent as described in WHO (2013; ISBN 978 92 4 150502 4).
The assay consists of a transparent cage (1200×755×700 mm; ˜0.63 m^3) covered by white paper. This cage is divided in two chambers of equal dimensions by a plasticized paper wall with square opening (200×200 mm) situated in the middle of the wall. At the beginning of the experiment, about 40 two-weeks old female Aedes aegypti mosquitoes are placed in the right chambers. Once the mosquitoes are settled inside this chamber (>5 min), the door between the chambers is opened. Then the stimulus is introduced into the mosquito chamber through a L-shape Teflon tube (40 mm) placed in the middle of the right Plexiglas wall. The stimulus is dispensed thanks to a Forced Evaporation System (Chappuis et al, 2015, DOI: 10.1021/acs.est.5b00692) at a rate of 0.1 mL/min in a nitrogen flow of 1 L/min, blended in a humid air flow of 9L/min before being carried to the L-shape Teflon tube. An air sucking system (˜150 L/min) is placed above the wall opening, between the two chambers (100 mm Ø), preventing the untreated chamber from being contaminated by the stimulus and limiting the stimulus accumulation in the treated chamber. […] Ten, 20, 30 and 40 minutes after the start of the stimulus injection, the number of mosquitoes that have moved to the untreated chamber is manually counted.

Anopheles gambiae [2] = assay: Warm Body assay, mosquito landings on treated warm body; format: in vivo
Method: Anopheles gambiae is also a model organism as it is anthropophilic and transmits malaria.
The controlling effect according to the present invention was assessed using an adapted Warm Body assay as defined in Kröber T, Kessler S, Frei J, Bourquin M, Guerin P M. 2010. J Am Mosq Control Assoc. 26: 381-386. In this in-vitro assay the number of mosquito landing on a warm body, simulating an attractive host treated with the tested stimuli, was measured in order to assess the repellence effect.
On the sandblasted glass Petri dish covering the warm body (28.3 cm^2), 100 μL of the compounds diluted at different concentrations in ethanol was applied. The number of mosquito landing on the warm body was counted for each stimulus and pure ethanol (solvent) as control.

Anopheles gambiae [3] = assay: Arm-in-cage test on human volunteers over time; format: in vivo
Aedes aegypti [4] = assay: Warm Body assay, mosquito landings on treated warm body; format: in vivo
In short: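 Compounds in ethanol (100 μL, various concentrations) were applied to a sandblasted glass dish covering the warm body (28.3 cm^2), with ethanol as control. Landings were counted automatically from 30 non-blood-fed, sugar-fed Aedes aegypti Rockefeller females aged 5–10 days, under 150 lux.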

Aedes aegypti [5] = assay: Free flying room assay, spatial repellence with human volunteer; format: in vivo
Description: The goal of this large-scale test is to assess the propensity of stimulus released in the air to protect a human volunteer by limiting the mosquito presence in a protected space and the number of landing/biting. The protocol used to carry the test is following the guidelines indicated in WHO (2013; ISBN 978 92 4 150502 4).
A group of 50 Aedes aegypti female mosquitoes were introduced in one chamber of 25 m^3 one hour before the test started. The product was applied in the other chamber of 25 m^3 (“treated chamber”) and let evaporate for 30 minutes. The test started when the window separating the two chambers was opened in a tilt-on manner for another 30 minutes. Twenty minutes after the window was opened, a volunteer entered in the “treated chamber” and sat down for 10 minutes, exposing the forearm for the last 3 minutes to determine the probing activity (Protective Efficacy). Then, the connecting window was closed and the number of mosquitoes in each of the chambers was counted (Spatial Repellency). The negative controls were carried out following the same procedure but without the application of the stimulus. Three replicates of each treatment and of the negative control were conducted with three different volunteers.

Ixodes ricinus = assay: Warm Plate assay, tick repellence; details: Ixodes ricinus, read-out: Percentage of repellence of ticks Ixodes ricinus on the warm plate

CCN(CC)C(=O)c1cccc(C)c1 [DEET, N,N-diethyl-meta-toluamide, reference compound]
movement of mosquitoes towards the refuge chamber (Aedes aegypti [1]; after 40 min of injection in the treated chamber): 16.2%±7.3%

Cc1ccc2c(c1)OCC(=O)CO2 [compound 1228, 7-methyl-1,5-benzodioxepin-3-one]
pest or weed control at 3.2 µg/mL (Anopheles gambiae [2]; Anopheles gambiae, 0.0032 mg/mL (Table 5), read-out: Percentage of repellence of mosquitoes Anopheles gambiae landing on the warm body): 0%
pest or weed control at 80 µg/mL (Anopheles gambiae [2]; Anopheles gambiae, 0.08 mg/mL (Table 5), read-out: Percentage of repellence of mosquitoes Anopheles gambiae landing on the warm body): 0%
pest or weed control at 178 µg/mL (Anopheles gambiae [2]; Anopheles gambiae, 0.178 mg/mL (Table 4), read-out: Percentage of repellence of mosquitoes Anopheles gambiae landing on the warm body): 48%
pest or weed control at 178 µg/mL (Anopheles gambiae [2]; Anopheles gambiae, 0.178 mg/mL (Table 5), read-out: Percentage of repellence of mosquitoes Anopheles gambiae landing on the warm body): 48%
pest or weed control at 267 µg/mL (Anopheles gambiae [2]; Anopheles gambiae, 0.267 mg/mL (Table 4), read-out: Percentage of repellence of mosquitoes Anopheles gambiae landing on the warm body): 85%
pest or weed control at 267 µg/mL (Anopheles gambiae [2]; Anopheles gambiae, 0.267 mg/mL (Table 5), read-out: Percentage of repellence of mosquitoes Anopheles gambiae landing on the warm body): 71%
pest or weed control at 400 µg/mL (Anopheles gambiae [2]; Anopheles gambiae, 0.4 mg/mL (Table 4), read-out: Percentage of repellence of mosquitoes Anopheles gambiae landing on the warm body): 65%
pest or weed control at 400 µg/mL (Anopheles gambiae [2]; Anopheles gambiae, 0.4 mg/mL (Table 5), read-out: Percentage of repellence of mosquitoes Anopheles gambiae landing on the warm body): 66%
pest or weed control at 598 µg/mL (Anopheles gambiae [2]; Anopheles gambiae, 0.598 mg/mL (Table 5), read-out: Percentage of repellence of mosquitoes Anopheles gambiae landing on the warm body): 69%
pest or weed control at 2000 µg/mL (Anopheles gambiae [2]; Anopheles gambiae, 2 mg/mL (Table 5), read-out: Percentage of repellence of mosquitoes Anopheles gambiae landing on the warm body): 92%
pest or weed control at 4470 µg/mL (Anopheles gambiae [2]; Anopheles gambiae, 4.47 mg/mL (Table 4), read-out: Percentage of repellence of mosquitoes Anopheles gambiae landing on the warm body): 92%
pest or weed control at 4470 µg/mL (Anopheles gambiae [2]; Anopheles gambiae, 4.47 mg/mL (Table 5), read-out: Percentage of repellence of mosquitoes Anopheles gambiae landing on the warm body): 92%
pest or weed control at 10000 µg/mL (Anopheles gambiae [2]; Anopheles gambiae, 10 mg/mL (Table 4), read-out: Percentage of repellence of mosquitoes Anopheles gambiae landing on the warm body): 100%
pest or weed control at 10000 µg/mL (Anopheles gambiae [2]; Anopheles gambiae, 10 mg/mL (Table 5), read-out: Percentage of repellence of mosquitoes Anopheles gambiae landing on the warm body): 100%
repellence (no mosquito landing on the attractive stimulus) (Anopheles gambiae [2]; with at least one of the two concentrations 0.447% & 1% (Table 4)): 100%
Complete Protection Time (no confirmed landing) (Anopheles gambiae [3]; arm treated with 20%): 1.33 h
Number of mosquitoes landing on the treated arm (test) (Anopheles gambiae [3]; arm treated with 20%, 30 min post-application): 0
Number of mosquitoes landing on the treated arm (test) (Anopheles gambiae [3]; arm treated with 20%, 1 h post-application): 0
Number of mosquitoes landing on the treated arm (test) (Anopheles gambiae [3]; arm treated with 20%, 2 h post-application): 3.0 ± 1.8
Number of mosquitoes landing on the treated arm (test) (Anopheles gambiae [3]; arm treated with 20%, 3 h post-application): 7.5 ± 1.1
protection (Anopheles gambiae [3]; at 3 h, on two volunteers): 79.64%
pest or weed control at 16 µg/mL (Aedes aegypti [4]; Aedes aegypti, 0.016 mg/mL (Table 3), read-out: Percentage of repellence of mosquitoes Aedes aegypti landing on the warm body): 54%
pest or weed control at 400 µg/mL (Aedes aegypti [4]; Aedes aegypti, 0.4 mg/mL (Table 3), read-out: Percentage of repellence of mosquitoes Aedes aegypti landing on the warm body): 74%
pest or weed control at 10000 µg/mL (Aedes aegypti [4]; Aedes aegypti, 10 mg/mL (Table 3), read-out: Percentage of repellence of mosquitoes Aedes aegypti landing on the warm body): 100%
pest or weed control at 1 % (Aedes aegypti [4]; Aedes aegypti, highest tested concentration, 1% (Table 3), read-out: repellence): > 90%
pest or weed control at 0.0016 % (Aedes aegypti [4]; Aedes aegypti, lowest concentration of 0.0016% (Table 3), read-out: reduce the number of mosquito landings): > 50%
mosquito landing within the two minutes of experiments (Aedes aegypti [4]; highest tested concentration, 1% (Table 3)): protect the attractive stimulus for any mosquito landing

COc1cc(C)cc(OC)c1O [compound 1537, 2,6-dimethoxy-4-methylphenol]
mosquitoes landed on the volunteer (Aedes aegypti [5]; in 3 minutes, negative control 60.7±2.5 landings): 14.7±2.5
Spatial Repellence (Aedes aegypti [5]; large scale assay, 25 m3 chambers, compound released in the air): 64.3 ± 3.4%
Protective efficacy (Aedes aegypti [5]; large scale assay, probing on volunteer forearm, 3 minutes): 75.8 ± 3.9%
mosquito entered the treated chamber (Aedes aegypti [5]; negative control 82.5±3.7%): 29.5±2.8%
pest or weed control at 400 µg/mL (Ixodes ricinus): 16.7%
pest or weed control at 2000 µg/mL (Ixodes ricinus): 58.3%
pest or weed control at 10000 µg/mL (Ixodes ricinus): 72.7%
pest or weed control at 3.2 µg/mL (Aedes aegypti [4]; Aedes aegypti, 0.0032 mg/mL (Table 2), read-out: Percentage of repellence of mosquitoes Aedes aegypti landing on the warm body): 0%
pest or weed control at 16 µg/mL (Aedes aegypti [4]; Aedes aegypti, 0.016 mg/mL (Table 2), read-out: Percentage of repellence of mosquitoes Aedes aegypti landing on the warm body): 35%
pest or weed control at 35.7 µg/mL (Aedes aegypti [4]; Aedes aegypti, 0.0357 mg/mL (Table 2), read-out: Percentage of repellence of mosquitoes Aedes aegypti landing on the warm body): 36%
pest or weed control at 80 µg/mL (Aedes aegypti [4]; Aedes aegypti, 0.08 mg/mL (Table 2), read-out: Percentage of repellence of mosquitoes Aedes aegypti landing on the warm body): 40%
pest or weed control at 178 µg/mL (Aedes aegypti [4]; Aedes aegypti, 0.178 mg/mL (Table 2), read-out: Percentage of repellence of mosquitoes Aedes aegypti landing on the warm body): 62%
pest or weed control at 400 µg/mL (Aedes aegypti [4]; Aedes aegypti, 0.4 mg/mL (Table 2), read-out: Percentage of repellence of mosquitoes Aedes aegypti landing on the warm body): 89%
pest or weed control at 890 µg/mL (Aedes aegypti [4]; Aedes aegypti, 0.89 mg/mL (Table 2), read-out: Percentage of repellence of mosquitoes Aedes aegypti landing on the warm body): 84%
pest or weed control at 2000 µg/mL (Aedes aegypti [4]; Aedes aegypti, 2 mg/mL (Table 2), read-out: Percentage of repellence of mosquitoes Aedes aegypti landing on the warm body): 100%
pest or weed control at 10000 µg/mL (Aedes aegypti [4]; Aedes aegypti, 10 mg/mL (Table 2), read-out: Percentage of repellence of mosquitoes Aedes aegypti landing on the warm body): 100%
plateau of mosquitoes moved to the untreated chamber (Aedes aegypti [1]; after 30 min of injection): ~42%
